Test results taken from ChEMBL document CHEMBL1821607, “N-Arylalkyl-2-azaadamantanes as cage-expanded polycarbocyclic sigma (σ) receptor ligands” (Bioorg Med Chem Lett, 2011).
pKi: −log10 of the molar value.

Tests used:
[1] = biological target: T1, Kappa-type opioid receptor (Homo sapiens, UniProt P41145); assay: Inhibition of kappa opioid receptor by NIMH PDSP
[2] = biological target: T2, Muscarinic acetylcholine receptor M1 (Homo sapiens) (UniProt P11229); assay: Inhibition of M1 muscarinic receptor at 10 uM by NIMH PDSP
T2 sequence (whole entry): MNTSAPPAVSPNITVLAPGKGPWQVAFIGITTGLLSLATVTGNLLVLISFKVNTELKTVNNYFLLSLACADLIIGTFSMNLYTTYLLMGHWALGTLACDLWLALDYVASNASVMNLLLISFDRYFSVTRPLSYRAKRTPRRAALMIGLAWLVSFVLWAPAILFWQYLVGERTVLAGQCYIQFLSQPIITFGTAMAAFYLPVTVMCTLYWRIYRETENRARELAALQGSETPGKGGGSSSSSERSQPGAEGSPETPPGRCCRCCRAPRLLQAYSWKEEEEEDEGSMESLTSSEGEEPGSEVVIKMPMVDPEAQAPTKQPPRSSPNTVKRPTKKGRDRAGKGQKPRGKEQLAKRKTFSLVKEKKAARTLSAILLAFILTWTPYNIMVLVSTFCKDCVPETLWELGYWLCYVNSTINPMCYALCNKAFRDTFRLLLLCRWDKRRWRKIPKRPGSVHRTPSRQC

[3] = biological target: T3, Alpha-2A adrenergic receptor (Homo sapiens) (UniProt P08913); assay: Inhibition of alpha-2A adrenergic receptor at 10 uM by NIMH PDSP
T3 sequence (whole entry): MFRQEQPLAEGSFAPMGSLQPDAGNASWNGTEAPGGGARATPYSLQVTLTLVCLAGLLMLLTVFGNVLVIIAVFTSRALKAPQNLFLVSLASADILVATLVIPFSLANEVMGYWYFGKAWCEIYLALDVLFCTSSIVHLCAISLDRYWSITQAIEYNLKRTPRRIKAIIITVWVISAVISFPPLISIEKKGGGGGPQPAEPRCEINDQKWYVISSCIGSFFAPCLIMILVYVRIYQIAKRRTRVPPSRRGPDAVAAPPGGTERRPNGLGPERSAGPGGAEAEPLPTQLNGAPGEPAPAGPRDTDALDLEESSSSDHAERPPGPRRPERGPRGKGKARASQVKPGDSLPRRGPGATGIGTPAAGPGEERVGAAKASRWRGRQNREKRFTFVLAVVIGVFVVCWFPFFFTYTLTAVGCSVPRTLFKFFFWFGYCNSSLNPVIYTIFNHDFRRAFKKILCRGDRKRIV

[4] = biological target: T4, Alpha-2B adrenergic receptor (Homo sapiens) (UniProt P18089); assay: Inhibition of alpha-2B adrenergic receptor at 10 uM by NIMH PDSP
T4 sequence (whole entry): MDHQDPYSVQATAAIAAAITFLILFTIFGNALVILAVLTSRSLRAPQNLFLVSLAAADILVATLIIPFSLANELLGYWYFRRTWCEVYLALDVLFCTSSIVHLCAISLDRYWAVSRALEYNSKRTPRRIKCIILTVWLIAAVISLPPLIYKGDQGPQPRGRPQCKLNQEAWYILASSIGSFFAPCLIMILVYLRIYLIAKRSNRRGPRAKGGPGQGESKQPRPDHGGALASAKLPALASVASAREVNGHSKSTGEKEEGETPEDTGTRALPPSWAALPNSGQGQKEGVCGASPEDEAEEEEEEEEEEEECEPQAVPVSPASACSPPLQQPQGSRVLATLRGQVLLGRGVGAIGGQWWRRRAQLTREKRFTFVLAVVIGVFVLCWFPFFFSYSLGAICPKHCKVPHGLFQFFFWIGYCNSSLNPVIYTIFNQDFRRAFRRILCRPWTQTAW

[5] = biological target: Muscarinic acetylcholine receptor M5 (Homo sapiens) (UniProt P08912); assay: Inhibition of M5 muscarinic receptor at 10 uM by NIMH PDSP
Muscarinic acetylcholine receptor M5 (Homo sapiens), sequence (P08912 whole entry): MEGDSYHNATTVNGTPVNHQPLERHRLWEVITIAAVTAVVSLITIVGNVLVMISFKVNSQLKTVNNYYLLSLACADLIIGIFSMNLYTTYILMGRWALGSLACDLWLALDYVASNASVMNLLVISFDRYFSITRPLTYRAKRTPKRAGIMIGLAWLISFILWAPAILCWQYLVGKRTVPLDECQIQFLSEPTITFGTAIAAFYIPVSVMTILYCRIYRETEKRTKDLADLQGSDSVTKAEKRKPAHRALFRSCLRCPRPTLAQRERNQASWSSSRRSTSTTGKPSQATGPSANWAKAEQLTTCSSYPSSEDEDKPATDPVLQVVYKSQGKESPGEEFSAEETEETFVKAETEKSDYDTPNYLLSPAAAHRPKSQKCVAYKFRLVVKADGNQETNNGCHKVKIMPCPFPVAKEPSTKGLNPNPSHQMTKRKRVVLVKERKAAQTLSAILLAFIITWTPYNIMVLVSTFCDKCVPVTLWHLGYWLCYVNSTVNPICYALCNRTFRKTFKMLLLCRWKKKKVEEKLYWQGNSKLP

[6] = biological target: Muscarinic acetylcholine receptor M4 (Homo sapiens) (UniProt P08173); assay: Inhibition of M4 muscarinic receptor at 10 uM by NIMH PDSP
Muscarinic acetylcholine receptor M4 (Homo sapiens), sequence (P08173 whole entry): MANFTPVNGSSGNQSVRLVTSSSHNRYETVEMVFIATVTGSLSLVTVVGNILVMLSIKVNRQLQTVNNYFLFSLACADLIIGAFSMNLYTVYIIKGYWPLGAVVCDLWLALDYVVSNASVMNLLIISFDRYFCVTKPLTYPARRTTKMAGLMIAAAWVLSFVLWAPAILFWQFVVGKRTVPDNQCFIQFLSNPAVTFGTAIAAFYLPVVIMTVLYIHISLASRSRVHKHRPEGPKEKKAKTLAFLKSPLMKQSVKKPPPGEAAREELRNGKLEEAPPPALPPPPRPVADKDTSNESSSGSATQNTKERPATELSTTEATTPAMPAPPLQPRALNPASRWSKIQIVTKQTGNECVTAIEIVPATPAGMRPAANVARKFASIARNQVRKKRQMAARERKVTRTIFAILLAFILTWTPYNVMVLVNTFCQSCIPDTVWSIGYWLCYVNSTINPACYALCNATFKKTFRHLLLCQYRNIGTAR

[7] = biological target: Muscarinic acetylcholine receptor M2 (Homo sapiens) (UniProt P08172); assay: Inhibition of M2 muscarinic receptor at 10 uM by NIMH PDSP
Muscarinic acetylcholine receptor M2 (Homo sapiens), sequence (P08172 whole entry): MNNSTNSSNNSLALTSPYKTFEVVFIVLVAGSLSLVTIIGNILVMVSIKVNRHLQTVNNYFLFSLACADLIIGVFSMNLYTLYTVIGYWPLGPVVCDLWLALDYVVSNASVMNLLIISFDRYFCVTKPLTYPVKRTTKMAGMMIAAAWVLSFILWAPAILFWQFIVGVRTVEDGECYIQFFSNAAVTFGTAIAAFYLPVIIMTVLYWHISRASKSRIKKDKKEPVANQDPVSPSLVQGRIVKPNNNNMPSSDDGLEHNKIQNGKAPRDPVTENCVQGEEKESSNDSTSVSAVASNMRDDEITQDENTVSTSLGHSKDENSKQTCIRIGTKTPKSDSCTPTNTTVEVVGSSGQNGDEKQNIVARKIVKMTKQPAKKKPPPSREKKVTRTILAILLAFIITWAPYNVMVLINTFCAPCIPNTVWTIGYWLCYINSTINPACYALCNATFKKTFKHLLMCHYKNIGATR

[8] = biological target: Histamine H3 receptor (Homo sapiens) (UniProt Q9Y5N1); assay: Inhibition of H3 receptor at 10 uM by NIMH PDSP
Histamine H3 receptor (Homo sapiens), sequence (Q9Y5N1 whole entry): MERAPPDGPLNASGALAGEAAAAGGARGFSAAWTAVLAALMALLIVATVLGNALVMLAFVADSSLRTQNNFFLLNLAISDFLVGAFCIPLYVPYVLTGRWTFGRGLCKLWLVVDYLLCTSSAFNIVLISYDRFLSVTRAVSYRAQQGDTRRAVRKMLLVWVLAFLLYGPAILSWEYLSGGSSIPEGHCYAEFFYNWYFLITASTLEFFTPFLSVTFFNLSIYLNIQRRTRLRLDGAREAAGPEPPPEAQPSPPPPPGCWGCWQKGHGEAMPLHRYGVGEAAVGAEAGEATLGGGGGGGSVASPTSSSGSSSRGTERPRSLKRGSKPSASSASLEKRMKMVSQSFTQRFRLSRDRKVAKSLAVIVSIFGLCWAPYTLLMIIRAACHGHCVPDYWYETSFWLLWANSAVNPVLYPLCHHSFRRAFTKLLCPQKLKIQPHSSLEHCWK

[9] = Selectivity ratio of Ki for sigma 1 receptor in guinea pig brain to Ki for sigma 2 receptor in rat liver
[10] = biological target: 5-hydroxytryptamine receptor 1E (Homo sapiens) (UniProt P28566); assay: Inhibition of 5-HT1E receptor at 10 uM by NIMH PDSP
5-hydroxytryptamine receptor 1E (Homo sapiens), sequence (P28566 whole entry): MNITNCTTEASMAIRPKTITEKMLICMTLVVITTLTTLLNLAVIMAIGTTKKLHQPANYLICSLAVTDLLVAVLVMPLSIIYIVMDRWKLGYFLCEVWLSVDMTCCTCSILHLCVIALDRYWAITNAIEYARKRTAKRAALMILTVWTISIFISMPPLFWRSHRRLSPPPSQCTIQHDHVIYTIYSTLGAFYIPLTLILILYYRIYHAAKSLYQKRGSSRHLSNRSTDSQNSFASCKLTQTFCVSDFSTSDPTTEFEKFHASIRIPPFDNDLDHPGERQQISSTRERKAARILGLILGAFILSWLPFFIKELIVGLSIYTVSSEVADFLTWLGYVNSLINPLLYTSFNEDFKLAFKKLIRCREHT

[11] = Selectivity ratio of Ki for sigma 2 receptor in rat liver to Ki for sigma 1 receptor in guinea pig brain
[12] = biological target: Alpha-1A adrenergic receptor (Homo sapiens, UniProt P35348); assay: Inhibition of alpha-1A adrenergic receptor by NIMH PDSP
Alpha-1A adrenergic receptor, sequence (P35348 whole entry): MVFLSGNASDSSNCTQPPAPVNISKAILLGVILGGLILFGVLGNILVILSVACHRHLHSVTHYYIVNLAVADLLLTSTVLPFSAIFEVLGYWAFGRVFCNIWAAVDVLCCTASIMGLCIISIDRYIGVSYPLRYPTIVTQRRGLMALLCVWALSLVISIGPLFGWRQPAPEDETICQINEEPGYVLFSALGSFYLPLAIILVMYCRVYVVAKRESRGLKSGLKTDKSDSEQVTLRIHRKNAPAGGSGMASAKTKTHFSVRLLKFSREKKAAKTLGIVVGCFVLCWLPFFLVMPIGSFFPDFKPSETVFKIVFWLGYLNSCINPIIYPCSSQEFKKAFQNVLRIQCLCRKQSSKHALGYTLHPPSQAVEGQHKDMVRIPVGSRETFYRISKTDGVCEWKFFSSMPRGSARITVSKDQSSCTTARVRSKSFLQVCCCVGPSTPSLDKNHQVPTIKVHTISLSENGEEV

[13] = biological target: T1, Kappa-type opioid receptor; assay: Inhibition of kappa opioid receptor at 10 uM by NIMH PDSP
D(1A) dopamine receptor = D(1A) dopamine receptor (Homo sapiens, UniProt P21728); assay: Inhibition of D1 dopamine receptor by NIMH PDSP
D(1A) dopamine receptor, sequence (P21728 whole entry): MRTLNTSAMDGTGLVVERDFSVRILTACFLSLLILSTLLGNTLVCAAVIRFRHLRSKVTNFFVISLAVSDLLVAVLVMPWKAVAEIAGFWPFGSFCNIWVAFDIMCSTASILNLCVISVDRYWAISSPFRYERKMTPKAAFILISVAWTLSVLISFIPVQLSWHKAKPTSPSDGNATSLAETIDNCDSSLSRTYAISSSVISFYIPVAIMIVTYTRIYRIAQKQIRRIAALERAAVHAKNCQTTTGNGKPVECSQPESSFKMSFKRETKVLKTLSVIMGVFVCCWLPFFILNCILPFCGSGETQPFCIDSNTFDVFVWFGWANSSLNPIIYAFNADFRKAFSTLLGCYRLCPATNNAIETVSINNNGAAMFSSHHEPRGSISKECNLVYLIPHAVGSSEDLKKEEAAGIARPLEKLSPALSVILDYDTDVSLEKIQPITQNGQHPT

[14] = biological target: Muscarinic acetylcholine receptor M5 (Homo sapiens, UniProt P08912); assay: Inhibition of M5 muscarinic receptor by NIMH PDSP
Muscarinic acetylcholine receptor M5, sequence (P08912 whole entry): as the sequence (P08912 whole entry) above

[15] = biological target: Muscarinic acetylcholine receptor M4 (Homo sapiens, UniProt P08173); assay: Inhibition of M4 muscarinic receptor by NIMH PDSP
Muscarinic acetylcholine receptor M4, sequence (P08173 whole entry): as the sequence (P08173 whole entry) above

[16] = biological target: Sodium-dependent dopamine transporter (Homo sapiens) (UniProt Q01959); assay: Inhibition of DAT transporter at 10 uM by NIMH PDSP
Sodium-dependent dopamine transporter (Homo sapiens), sequence (Q01959 whole entry): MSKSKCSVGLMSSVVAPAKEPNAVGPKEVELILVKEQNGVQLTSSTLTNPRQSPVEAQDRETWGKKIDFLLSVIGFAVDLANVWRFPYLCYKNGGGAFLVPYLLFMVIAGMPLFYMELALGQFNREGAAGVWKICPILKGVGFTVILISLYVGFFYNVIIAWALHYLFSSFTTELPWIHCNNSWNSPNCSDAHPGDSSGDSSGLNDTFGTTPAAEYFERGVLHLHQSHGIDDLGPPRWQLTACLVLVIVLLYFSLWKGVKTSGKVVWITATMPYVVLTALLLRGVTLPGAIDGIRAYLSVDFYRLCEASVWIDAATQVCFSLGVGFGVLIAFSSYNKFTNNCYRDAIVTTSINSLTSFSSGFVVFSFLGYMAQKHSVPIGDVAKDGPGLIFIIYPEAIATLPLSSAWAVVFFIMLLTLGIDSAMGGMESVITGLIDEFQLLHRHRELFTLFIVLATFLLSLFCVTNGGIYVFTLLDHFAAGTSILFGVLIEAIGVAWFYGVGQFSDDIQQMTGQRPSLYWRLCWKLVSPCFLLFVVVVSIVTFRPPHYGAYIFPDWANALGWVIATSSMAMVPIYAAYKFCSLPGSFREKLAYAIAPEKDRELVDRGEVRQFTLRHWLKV

[17] = biological target: Muscarinic acetylcholine receptor M2 (Homo sapiens, UniProt P08172); assay: Inhibition of M2 muscarinic receptor by NIMH PDSP
Muscarinic acetylcholine receptor M2, sequence (P08172 whole entry): as the sequence (P08172 whole entry) above

[18] = biological target: Alpha-2A adrenergic receptor (Homo sapiens, UniProt P08913); assay: Inhibition of alpha-2A adrenergic receptor by NIMH PDSP
[19] = biological target: Sodium-dependent noradrenaline transporter (Homo sapiens, UniProt P23975); assay: Inhibition of NET transporter at 10 uM by NIMH PDSP
Sodium-dependent noradrenaline transporter, sequence (P23975 whole entry): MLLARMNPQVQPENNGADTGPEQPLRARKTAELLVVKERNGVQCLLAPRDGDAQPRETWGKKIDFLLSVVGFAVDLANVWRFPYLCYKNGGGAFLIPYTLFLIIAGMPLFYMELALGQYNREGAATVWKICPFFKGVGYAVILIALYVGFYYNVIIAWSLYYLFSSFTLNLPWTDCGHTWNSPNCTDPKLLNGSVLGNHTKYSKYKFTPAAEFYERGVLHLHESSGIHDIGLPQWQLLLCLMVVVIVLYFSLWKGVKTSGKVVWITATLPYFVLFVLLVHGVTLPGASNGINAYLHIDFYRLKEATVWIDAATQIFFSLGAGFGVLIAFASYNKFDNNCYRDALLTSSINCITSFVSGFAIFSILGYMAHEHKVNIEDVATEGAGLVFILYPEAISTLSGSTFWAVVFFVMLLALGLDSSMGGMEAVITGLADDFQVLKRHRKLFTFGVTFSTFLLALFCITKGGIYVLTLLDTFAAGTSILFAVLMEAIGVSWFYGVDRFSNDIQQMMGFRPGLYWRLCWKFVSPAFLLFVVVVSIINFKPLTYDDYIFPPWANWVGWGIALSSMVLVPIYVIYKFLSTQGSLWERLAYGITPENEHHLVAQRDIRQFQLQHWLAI

[20] = biological target: Alpha-2B adrenergic receptor (Homo sapiens, UniProt P18089); assay: Inhibition of alpha-2B adrenergic receptor by NIMH PDSP

T1 sequence (P41145 whole entry): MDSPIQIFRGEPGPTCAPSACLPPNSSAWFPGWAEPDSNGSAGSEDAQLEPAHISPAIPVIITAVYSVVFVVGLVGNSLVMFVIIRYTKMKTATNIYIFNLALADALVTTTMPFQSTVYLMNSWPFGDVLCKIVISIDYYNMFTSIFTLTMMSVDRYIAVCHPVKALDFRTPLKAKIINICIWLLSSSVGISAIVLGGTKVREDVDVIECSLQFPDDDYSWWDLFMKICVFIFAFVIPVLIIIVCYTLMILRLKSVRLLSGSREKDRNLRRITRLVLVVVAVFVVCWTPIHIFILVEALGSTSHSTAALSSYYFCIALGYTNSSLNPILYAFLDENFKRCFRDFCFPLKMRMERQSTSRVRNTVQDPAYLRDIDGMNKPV

| SMILES | pKi [1] | inhibition [2] [%] | inhibition [3] [%] | inhibition [4] [%] | inhibition [5] [%] | inhibition [6] [%] | inhibition [7] [%] | inhibition [8] [%] | Ratio Ki [9] | inhibition [10] [%] | Ratio Ki [11] | inhibition [13] [%] | pKi [14] | pKi [15] | inhibition [16] [%] | pKi [17] | further results |
| --- | --- | --- | --- | --- | --- | --- | --- | --- | --- | --- | --- | --- | --- | --- | --- | --- | --- |
| OC12CC3CC(CC(C3)N1Cc1cccc(F)c1)C2 (racemic) | 5.92 | < 50 | < 50 | < 50 | < 50 | < 50 | < 50 | < 50 | 1.2 | < 50 |  |  |  |  |  |  |  |
| Fc1cccc(CN2C3CC4CC(C3)CC2C4)c1 |  | < 50 | < 50 | < 50 |  |  |  | < 50 |  | < 50 | 6 | < 50 | 5.26 | 5.87 | < 50 | 5.45 | pKi [12]: < 5.00; pKi (D(1A) dopamine receptor): < 5.00 |
| OC12CC3CC(CC(C3)N1Cc1ccccc1)C2 (racemic) | 6.18 | < 50 |  |  | < 50 | < 50 | < 50 | < 50 | 1.4 | < 50 |  |  |  |  |  |  | pKi [18]: < 5.00; inhibition [19]: < 50%; pKi [20]: < 5.00 |
| c1ccc(CN2C3CC4CC(C3)CC2C4)cc1 |  | < 50 | < 50 | < 50 |  |  |  | < 50 |  | < 50 | 3.3 | < 50 | 5.18 | 5.75 | < 50 | 5.37 |  |
